Assay results reported in patent US9675625B2, “Medicament comprising recombinant antibody against chemokine receptor CCR4” (KYOWA HAKKO KIRIN CO., LTD., priority 2003, dated 2017).
Several values for one entry are separate records, joined by “and”; a condition that tells them apart may be missing. Identical values can stand only once.

Legend:
CCRF-CEM cells [1] = assay: antitumor effect of KM 2760 and etoposide in combination, CCRF-CEM cells grafted in nude mouse; assay type: in vivo, Balb/c nude mouse; conditions: Day 7; KM 2760 800 μg per mouse Day 0 and Day 4; VP-16 10 mg/kg Day 0 to Day 4; tail vein
Description: (§1) CCRF-CEM cells (human T cell leukemia cell line) were suspended in RPMI 1640 medium (Gibco BRL) at a concentration of 2×10^8 cells/mL, and 100 μL of the suspension was grafted into the ventral skin of Balb/c nude mice (Nippon Crea, male). On Day 17 after the cell grafting, a diameter of a tumor was measured with calipers, and a tumor volume was calculated using formula 2 in Example 2.
Individuals having the tumor volume within the range of from 121 to 348 mm^3 (on average 195 mm^3) were selected, and grouped such that the average tumor volume to be almost the same. Each of the following agents A to D was then administered to the mice. Incidentally, the grouping day was defined as Day 0.
(§2) B. Group of administering KM 2760 alone: 800 μg of KM2760 was administered per mouse on Day 0 and Day 4.
C. Group of administering etoposide (hereinafter referred to as VP-16; Lastet injection, Nippon Kayaku Co., Ltd.) alone: 10 mg/kg of VP-16 was administered per mouse for 5 days from Day 0 to Day 4. […]
The experiment was conducted with groups each consisting of five mice. […] On Day 7, the tumor volume was measured. The antitumor effect was evaluated by comparing average values of a tumor volume change (V/V0) on Day 7 when the tumor volume on Day 0 in each group was defined as V0.

CCRF-CEM cells [2] = assay: antitumor effect of KM 2760 and vincristine in combination, CCRF-CEM cells grafted in nude mouse; assay type: in vivo, Balb/c nude mouse; conditions: Day 10; KM 2760 800 μg per mouse Day 0 and Day 4; VCR 0.55 mg/kg Day 0; tail vein
CCR4/EL4 cells [3] = assay: antitumor effect of KM 2760 and IFN-α in combination, CCR4/EL4 cells grafted into tail vein of C57BL/6 mice, liver weight ratio; assay type: in vivo, C57BL/6 mouse
Description: CCR4/EL4 cells were suspended in RPMI 1640 medium (manufactured by Gibco BRL) at a concentration of 5×10^5 cells/mL, and 100 μl of the suspension was grafted into the tail vein of C57BL/6 mice (CLEA Japan Inc., male, 8 weeks old). Further, mice were grouped into A to D, and each of the agents A to D were administered to the mice. Incidentally, the day on which the tumor was grafted was defined as Day 0.
B. Group of administering IFN-α alone: 5×10^4 units of IFN-α (Universal type I interferon, manufactured by PBL Biomedical Laboratories) was intravenously administered per mouse once a day for 5 days from Day 1 to Day 5.
The experiment was conducted with group A consisting of 7 mice and groups B, C and D each consisting of 6 mice. […] The weight of all mice was measured on Day 14. After etherization and exsanguination, mice were brought to euthanasia by dislocation of the cervical spine. The liver was extracted, and the weight of the liver was then measured. A ratio of the liver weight to the weight of each individual (hereinafter referred to as a weight ration of a liver) was calculated by percentage.
The antitumor effect was evaluated by comparing the liver weight ratio (average value of six mice) of untreated healthy mice measured simultaneously and the liver weight ratio of each group increased by metastasis of tumor cells.
Further, the residual amount of tumor cells in the liver in each group was calculated as a T/C value using the following formula. T/C=(average values of a weight ration of a liver of each group−average value of a weight ration of a liver of an untreated mouse)/(average value of a weight ration of a liver of a negative control group−average value of a weight ration of a liver of an untreated mouse) (Formula 4)

CCRF-CEM cells [4] = assay: antitumor effect of KM 2760 and cyclophosphamide in combination, CCRF-CEM cells grafted in nude mouse; assay type: in vivo, Balb/c nude mouse; conditions: Day 4; KM 2760 800 μg per mouse Day 0 and Day 4; CPA 65 mg/kg Day 0; tail vein
Description: CCRF-CEM cells (human T cell leukemia cell line) were suspended in RPMI 1640 medium (Gibco BRL) at a concentration of 2×10^8 cells/mL, and 100 μL of the suspension was grafted intradermally in the right flank of Balb/c nude mice (Nippon Crea, male). On Day 18 after the cell grafting, a diameter of a tumor was measured with calipers, and a tumor volume was calculated using formula 2 in Example 2.
Individuals having the tumor volume within the range of 116 to 349 mm^3 (on average 219 mm^3) were selected, and grouped such that the average tumor volume to be almost the same. Each of the following agent A to D was administered to the mice. Incidentally, the grouping day was defined as Day 0.
The experiment was conducted with groups each consisting of five mice. Each of the agents was diluted with a physiological saline (Otsuka Seiyaku), and the diluent was administered from the tail vein. On Day 4, the tumor volume was measured. The antitumor effect was evaluated by comparing an average values of a tumor volume change (V/V0) on each measurement day when the tumor volume on Day 0 in each group was defined as V0.

CCRF-CEM cells [5] = assay: antitumor effect of KM 2760 and Methotrexate in combination, CCRF-CEM cells grafted in nude mouse; assay type: in vivo, Balb/c nude mouse; conditions: Day 7; KM 2760 800 μg per mouse Day 0 and Day 4; MTX 15 mg/kg Day 0 to Day 4; tail vein
Description: as §1, with “(CLEA Japan Inc.” for “(Nippon Crea,”
Individuals having the tumor volume within the range of 121 to 348 mm^3 (on average 195 mm^3) were selected, and grouped such that the average tumor volume to be almost the same. Each of the following agents A to D was administered to the mice. Incidentally, the grouping day was defined as Day 0.
as §2
C. Group of administering Methotrexate (hereinafter referred to as MTX; Methotrexate injection solution, Nippon Weisledary K.K.) alone: 15 mg/kg of MTX was administered per mouse for 5 days from Day 0 to Day 4. […]
The experiment was conducted with groups each consisting of five mice. […] On Day 7, the tumor volume was measured. The antitumor effect was evaluated by comparing average values of a tumor volume change (V/V0) when the tumor volume on Day 0 in each group was defined as V0.

CCR4/EL4 cells [6] = tested on: CCR4/EL4 cells
Description: CCR4/EL4 cells (WO 01/64754) were suspended in RPMI 1640 medium (manufactured by Gibco BRL) at a concentration of 1×10^5 cells/mL, and 200 μL of the suspension was grafted into the peritoneal cavity of C57BL/6 mice (CLEA Japan Inc., male, 8 weeks old). After, mice was grouped into A to D, and each of the agents A to D was administered to each mouse. The day on which the tumor was grafted was defined as Day 0.
B. Group of administering M-CSF alone: 100 μg of M-CSF (Leucoprol, manufactured by Kyowa Hakko Kogyo Co., Ltd.) was intraperitoneally administered per mouse twice a day from Day-3 to Day-1 and once a day on Day 0, seven times in total.
The experiment was conducted with groups each consisting of 8 mice. […] The antitumor effect was evaluated by a ratio of average values of the number of survival days of mice in each group to an average value of the number of survival days of mice in the negative control group (hereinafter referred to as a life prolongation ratio).

CCR4/EL4 cells [7] = assay: antitumor effect of KM 2760 and G-CSF in combination, CCR4/EL4 cells grafted into ventral skin of C57BL/6 mice; assay type: in vivo, C57BL/6 mouse
Description: CCR4/EL4 cells (WO 01/64754) were suspended, in RPMI 1640 medium (Gibco BRL) at a concentration of 1×10^6 cells/mL, and 100 μL of the suspension was grafted into the right ventral skin of C57BL/6 mice (Nippon Crea, male, 8 weeks old). After, mice were grouped into A to D, each of the agents A to D were administered to each mouse. Incidentally, the day on which the tumor was grafted was defined as Day 0.
B. Group of administering KM 2760 alone: 100 μg of KM2760 was intravenously administered per mouse on Day 0 and Day 4.
C. Group of administering G-CSF alone: 10 μg of G-CSF (Neuup Injection 100, manufactured by Kyowa Hakko Kogyo Co., Ltd.) was subcutaneously administered per mouse once a day for 10 days from 4 days before the tumor grafting (hereinafter referred to as Day-4) to Day 5.
The experiment was conducted with group A consisting of 10 mice and groups B, C and D each consisting of 7 mice. […] Each of the diluent was administered at 100 μL. A diameter of a tumor was measured with calipers chronologically from Day 0 of each group. A tumor volume was calculated using formula 2 in Example 2.
Since the tumor death of the mouse was started in group A from Day 17 on, the evaluation of the tumor volume was finished on Day 14.
The antitumor effect (T/C value) in each group was evaluated by calculation using the following formula 3 for comparison between the average value of the tumor volume in group A and the average values of the tumor volume in each group on the final evaluation day (Day 14). (T/C value)=(average value of tumor volume in each group on Day 14)/average value of tumor volume in group A on Day 14) (Formula 3)

[8] = KM 2760 50 μg i.p. Day 0, M-CSF 100 μg i.p. seven times

COc1cc([C@@H]2c3cc4c(cc3[C@@H](O[C@@H]3O[C@@H]5CO[C@@H](C)O[C@H]5[C@H](O)[C@H]3O)[C@H]3COC(=O)[C@H]23)OCO4)cc(OC)c1O [VP-16, etoposide, reference compound]
T/C (V/V0 of group divided by V/V0 of negative control group) (CCRF-CEM cells [1]): 0.71

CC[C@]1(O)C[C@H]2CN(CCc3c([nH]c4ccccc34)[C@@](C(=O)OC)(c3cc4c(cc3OC)N(C=O)[C@H]3[C@@](O)(C(=O)OC)[C@H](OC(C)=O)[C@]5(CC)C=CCN6CC[C@]43[C@@H]65)C2)C1 [VCR, vincristine, reference compound]
T/C (V/V0 of group divided by V/V0 of negative control group) (CCRF-CEM cells [2]): 0.49

IFN-α
T/C value (residual amount of tumor cells in the liver, from liver weight ratio) (CCR4/EL4 cells [3]; Day 14, KM 2760 0.5 μg per mouse i.v. Day 1 and Day 5, IFN-α 5×10^4 units per mouse i.v. Day 1 to Day 5): 0.48
antitumor effect compared to untreated group A (liver weight ratio) (CCR4/EL4 cells [3]; FIG. 7, Day 14): low

O=P1(N(CCCl)CCCl)NCCCO1 (stereo not drawn) [CPA, cyclophosphamide, reference compound]
T/C (V/V0 of group divided by V/V0 of negative control group) (CCRF-CEM cells [4]): 0.48

CN(Cc1cnc2nc(N)nc(N)c2n1)c1ccc(C(=O)N[C@@H](CCC(=O)O)C(=O)O)cc1 [MTX, Methotrexate, reference compound]
T/C (V/V0 of group divided by V/V0 of negative control group) (CCRF-CEM cells [5]): 0.06

B1: M-CSF: M-CSF (Leucoprol, manufactured by Kyowa Hakko Kogyo Co., Ltd.) (protein, UniProt P09603 33-554, looked up)
Macrophage colony-stimulating …: EEVSEYCSHMIGSGHLQSLQRLIDSQMETSCQITFEFVDQEQLKDPVCYLKKAFLLVQDIMEDTMRFRDNTPNAIAIVQLQELSLRLKSCFTKDYEEHDKACVRTFYETPLQLLEKVKNVFNETKNLLDKDWNIFSKNCNNSFAECSSQDVVTKPDCNCLYPKAIPSSDPASVSPHQPLAPSMAPVAGLTWEDSEGTEGSSLLPGEQPLHTVDPGSAKQRPPRSTCQSFEPPETPVVKDSTIGGSPQPRPSVGAFNPGMEDILDSAMGTNWVPEEASGEASEIPVPQGTELSPSRPGGGSMQTEPARPSNFLSASSPLPASAKGQQPADVTGTALPRVGPVRPTGQDWNHTPQKTDHPSALLRDPPEPGSPRISSLRPQGLSNPSTLSAQPQLSRSHSSGSVLPLGELEGRRSTRDRRSPAEPEGGPASEGAARPLPRFNSVPLTDTGHERQSEGSFSPQLQESVFHLLVPSVILVLLAVGGLLFYRWRRRSHQEPQRADSPLEQPEGSPLTQDDRQVELPV
Number of survival days (each mouse) (CCR4/EL4 cells [6]; 8 mice per group, KM 2760 50 μg per mouse i.p. Day 0, M-CSF 100 μg per mouse i.p. seven times Day-3 to Day 0, observation to Day 50): 17 days (2×) and 18 days (3×) and 19 days (2×) and 22 days
Average number of survival days (CCR4/EL4 cells [6]; [8]): 18.8 days
Life prolongation ratio (average survival days of group / negative control group) (CCR4/EL4 cells [6]; [8]): 0.974
antitumor effect in comparison with untreated Group A (survival) (CCR4/EL4 cells [6]; Table 7): no antitumor effect

B2: G-CSF: G-CSF (Neuup Injection 100, manufactured by Kyowa Hakko Kogyo Co., Ltd.) (protein, UniProt P09919 31-207, looked up)
Granulocyte …: TPLGPASSLPQSFLLKCLEQVRKIQGDGAALQEKLVSECATYKLCHPEELVLLGHSLGIPWAPLSSCPSQALQLAGCLSQLHSGLFLYQGLLQALEGISPELGPTLDTLQLDVADFATTIWQQMEELGMAPALQPTQGAMPAFASAFQRRAGGVLVASHLQSFLEVSYRVLRHLAQP
modifications: nartograstim
T/C value (average tumor volume of group / group A) (CCR4/EL4 cells [7]; Day 14, KM 2760 100 μg per mouse i.v. Day 0 and Day 4, G-CSF 10 μg per mouse s.c. once a day Day-4 to Day 5): 0.63
antitumor effect compared to untreated group A (tumor volume) (CCR4/EL4 cells [7]; FIG. 6, up to Day 14): low
